Assay results from patent US20180224430A1, “Method of Estimating the Incidence of In Vivo Reactions to Chemical or Biological Agents Using In Vitro Experiments” (Coyne Scientific, LLC, priority 2015, published 2018).

Columns and labels:
[1] = cited from earlier work
[2] = tested on: cardiomyocytes derived from stem cells (differentiated induced pluripotent stem cells); test: In vitro assay with Endpoint A (causally associated with cardiomyopathy) on stem-cell-derived cardiomyocytes from 100 donors; type: cell-based, human
Protocol: An in vitro assay is then identified whose endpoint—referred to herein as Endpoint A—includes one that is causally associated with one of the cardiotoxic effects of doxorubicin: cardiomyopathy. Concentrations of doxorubicin as prescribed by the in vitro assay's protocol are prepared in a concentration that corresponds to doses of 500 mg and 600 mg administered in vivo.
In vitro tests are conducted at these concentrations on a representative sample of cardiomyocytes derived from stem cells (the cardiomyocytes are differentiated induced pluripotent stem cells) originating from a sample of 100 donors, and then the donors are arrayed in order of ascending scores on Endpoint A.
The “Reaction Threshold Prediction Model” is selected as the mathematical transform in their procedure. It is noted from the doxorubicin clinical cardiotoxicity data mentioned above that 12% of the clinical trial participants experienced cardiomyopathy when treated at the 500 mg dose level. Using the in vitro test results above, the Endpoint A score is determined that is associated with the 88th Percentile member of the in vitro cohort of 100 donors (88 representing 100% minus the 12% of the sample in vivo who experienced cardiomyopathy following treatment with a 500 mg dose). The Endpoint A score reads 70 units.
Next, the in vitro assay of doxorubicin is repeated, with a concentration corresponding to a 600 mg dose administered in vivo, on a representative sample of cardiomyocytes derived from stem cells originating from a sample of 100 donors, and then the donors are arrayed in order of ascending scores on Endpoint A. This time, the Endpoint A score is detected for the donor at the 76th Percentile (76 representing 100% minus the […] of the sample in vivo who experienced cardiomyopathy following treatment with a 600 mg dose). This time, the Endpoint A score reads 65 units. […]

In the case of `COc1cccc2c1C(=O)c1c(O)c3c(c(O)c1C2=O)C[C@@](O)(C(=O)CO)C[C@@H]3O[C@H]1C[C@H](N)[C@H](O)[C@H](C)O1` [doxorubicin], the “clinical trial participants who experienced cardiomyopathy” value ([1]; 500 mg dose level) is listed as 12%, the “sample in vivo who experienced cardiomyopathy” value ([1]; 600 mg dose) is listed as 23% and the “Endpoint A score” value ([2]; concentration corresponding to 500 mg dose, 88th percentile member of 100 donors) is listed as 70 units. For the same molecule, the “Endpoint A score” value ([2]; concentration corresponding to 600 mg dose, donor at 76th percentile of 100 donors) was 65 units and the “Endpoint A score approximating threshold of impact (presumed toxicity threshold)” value ([2]; leads to incidences of cardiomyopathy in the range of 10 to 25 percent) was 65-70.
